From patent US20260077051A1, “COMPOUNDS FOR THE DEGRADATION OF EGFR KINASE” (BeOne Medicines I GmbH, priority 2023, published 2026)

Tests used:
[1] = target: T1, EGFR L858R (BaF3-L858R cells) (Homo sapiens, UniProt P00533, L858R); assay: EGFR degradation in BaF3-L858R cells (HTRF assay); type: cell-based; details: 16 h treatment; for DC50: IC50(DC50) of EGFR degradation; for Dmax: maximum percentage of inhibition (degradation)
T1 construct: host or cells: BaF3
Procedure: BaF3-L858R (abbv. L858R) cell were purchased from Kangyuan Bochuang Biotechnology (Beijing) Co., Ltd.
(§1) H1975-#8 and BaF3-L858R cells are treated with compounds diluted in 0.1% DMSO cell culture medium on day 2, incubate for 16 h, 37° C., 5% CO2. the final concentration of compounds in all assay is start with 10 uM, 5-fold dilution, total 8 doses were included.
(§2) After 16 h treatment, for H1975-#8 cells, add 100 ul HTRF 1× lysis buffer to each well; for BaF3-L858R cells, add 20 μl 4× lysis buffer to each well; seal the plate and incubate 1 hour at room temperature on a plate shaker; Once the cells are lysed, 16 μL of cell lysate are transferred to a PE 384-well HTRF detection plate; 4 μL of pre-mixed HTRF antibodies are added to each well; Cover the plate with a plate sealer, spin 1000 rpm for 1 min, Incubate overnight at room temperature; Read on BMG PheraStar with HTRF protocol (337 nm-665 nm-620 nm).
(§3) The inhibition (degradation) percentage of the compound was calculated by the following equation:
(§4) High control=Cell group with added DMSO and without compound, indicating microplate readings without EGFR degradation;
(§5) Dmax is the maximum percentage of inhibition (degradation).
(§6) The IC50(DC50) value of a compound can be obtained by fitting the following equation
(§7) Wherein, X and Y are known values, and IC50, Hillslope, Top and Bottom are the parameters obtained by fitting with software. Y is the inhibition percentage (calculated from the equation), X is the concentration of the compound; IC50 is the concentration of the compound when the 50% inhibition is reached. The smaller the IC50 value is, the stronger the inhibitory ability of the compound is. Vice versa, the higher the IC50 value is, the weaker the ability the inhibitory ability of the compound is; Hillslope represents the slope of the fitted curve, generally around 1*; Bottom represents the minimum value of the curve obtained by data fitting, which is generally 0%±20%; Top represents the maximum value of the curve obtained by data fitting, which is generally 100%±20%. The experimental data were fitted by calculating and analyzing with Dotmatics data analysis software.

[2] = target: T2, EGFR-L858R/C797S (H1975-clone #8 cells) (Homo sapiens, UniProt P00533, C797S/L858R); assay: EGFR degradation in H1975-clone#8 (L858R/C797S) cells (HTRF assay); type: cell-based; details: 16 h treatment; for DC50: IC50(DC50) of EGFR degradation; for Dmax: maximum percentage of inhibition (degradation)
T2 construct: expressed in transfected cells; host or cells: H1975 (lentiviral transduction, endogenous EGFR knocked out, single clone #8)
T2 sequence (P00533 25-1210 C797S/L858R): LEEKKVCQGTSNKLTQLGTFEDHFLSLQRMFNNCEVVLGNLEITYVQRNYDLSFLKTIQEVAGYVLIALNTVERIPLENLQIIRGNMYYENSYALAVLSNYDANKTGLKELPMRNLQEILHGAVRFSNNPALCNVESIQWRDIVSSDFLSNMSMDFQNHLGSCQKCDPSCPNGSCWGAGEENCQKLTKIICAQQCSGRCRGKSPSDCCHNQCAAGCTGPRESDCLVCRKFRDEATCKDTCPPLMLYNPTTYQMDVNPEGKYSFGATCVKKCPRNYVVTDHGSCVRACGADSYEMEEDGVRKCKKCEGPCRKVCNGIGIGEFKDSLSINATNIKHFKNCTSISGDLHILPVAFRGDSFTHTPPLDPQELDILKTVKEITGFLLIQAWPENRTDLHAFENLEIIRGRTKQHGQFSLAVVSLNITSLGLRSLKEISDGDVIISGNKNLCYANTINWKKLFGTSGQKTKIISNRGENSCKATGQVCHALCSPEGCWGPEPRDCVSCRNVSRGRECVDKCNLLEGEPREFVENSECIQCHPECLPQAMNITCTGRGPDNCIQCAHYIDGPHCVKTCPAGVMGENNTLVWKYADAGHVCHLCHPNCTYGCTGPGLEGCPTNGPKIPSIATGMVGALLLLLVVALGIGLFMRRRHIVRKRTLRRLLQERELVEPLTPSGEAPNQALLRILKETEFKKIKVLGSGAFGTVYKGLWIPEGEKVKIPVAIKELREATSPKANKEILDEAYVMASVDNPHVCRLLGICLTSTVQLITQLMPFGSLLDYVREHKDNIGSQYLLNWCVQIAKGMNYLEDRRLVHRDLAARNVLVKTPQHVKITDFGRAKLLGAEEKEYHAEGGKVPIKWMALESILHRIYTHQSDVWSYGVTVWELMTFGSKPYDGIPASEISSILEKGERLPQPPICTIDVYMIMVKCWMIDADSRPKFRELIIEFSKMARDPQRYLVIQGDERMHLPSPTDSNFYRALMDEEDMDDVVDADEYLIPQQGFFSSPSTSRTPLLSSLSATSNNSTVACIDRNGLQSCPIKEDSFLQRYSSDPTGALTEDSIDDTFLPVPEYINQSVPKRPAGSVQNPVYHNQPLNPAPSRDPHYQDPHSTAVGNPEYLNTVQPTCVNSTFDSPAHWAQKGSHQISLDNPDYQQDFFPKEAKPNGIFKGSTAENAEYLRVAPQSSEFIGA
Procedure: H1975-clone #8 (L858R/C797S): EGFR-L858R/C797S were stably expressed in H1975 cell lines by lentivirus-mediated over-expression, respectively. The EGFR over-expressed cells then underwent knockout, in which the EGFR targeting sgRNA was designed to only target the endogenous EGFR copies and preserve the exogenous EGFR copies. Followed by the knockout, the edited H1975 cells were seeded in 96 well plates at the concentration of […], cultured for about 2 weeks to allow single clones formation. The formed clones were screened by DNA sequencing and whole exon sequencing analysis for the desired edition. H1975-clone #8 were finally confirmed as homozygous L858R/C797S EGFR clones.
as §1, §2, §3, §4, §5, §6, §7

T1 sequence (P00533 25-1210 L858R): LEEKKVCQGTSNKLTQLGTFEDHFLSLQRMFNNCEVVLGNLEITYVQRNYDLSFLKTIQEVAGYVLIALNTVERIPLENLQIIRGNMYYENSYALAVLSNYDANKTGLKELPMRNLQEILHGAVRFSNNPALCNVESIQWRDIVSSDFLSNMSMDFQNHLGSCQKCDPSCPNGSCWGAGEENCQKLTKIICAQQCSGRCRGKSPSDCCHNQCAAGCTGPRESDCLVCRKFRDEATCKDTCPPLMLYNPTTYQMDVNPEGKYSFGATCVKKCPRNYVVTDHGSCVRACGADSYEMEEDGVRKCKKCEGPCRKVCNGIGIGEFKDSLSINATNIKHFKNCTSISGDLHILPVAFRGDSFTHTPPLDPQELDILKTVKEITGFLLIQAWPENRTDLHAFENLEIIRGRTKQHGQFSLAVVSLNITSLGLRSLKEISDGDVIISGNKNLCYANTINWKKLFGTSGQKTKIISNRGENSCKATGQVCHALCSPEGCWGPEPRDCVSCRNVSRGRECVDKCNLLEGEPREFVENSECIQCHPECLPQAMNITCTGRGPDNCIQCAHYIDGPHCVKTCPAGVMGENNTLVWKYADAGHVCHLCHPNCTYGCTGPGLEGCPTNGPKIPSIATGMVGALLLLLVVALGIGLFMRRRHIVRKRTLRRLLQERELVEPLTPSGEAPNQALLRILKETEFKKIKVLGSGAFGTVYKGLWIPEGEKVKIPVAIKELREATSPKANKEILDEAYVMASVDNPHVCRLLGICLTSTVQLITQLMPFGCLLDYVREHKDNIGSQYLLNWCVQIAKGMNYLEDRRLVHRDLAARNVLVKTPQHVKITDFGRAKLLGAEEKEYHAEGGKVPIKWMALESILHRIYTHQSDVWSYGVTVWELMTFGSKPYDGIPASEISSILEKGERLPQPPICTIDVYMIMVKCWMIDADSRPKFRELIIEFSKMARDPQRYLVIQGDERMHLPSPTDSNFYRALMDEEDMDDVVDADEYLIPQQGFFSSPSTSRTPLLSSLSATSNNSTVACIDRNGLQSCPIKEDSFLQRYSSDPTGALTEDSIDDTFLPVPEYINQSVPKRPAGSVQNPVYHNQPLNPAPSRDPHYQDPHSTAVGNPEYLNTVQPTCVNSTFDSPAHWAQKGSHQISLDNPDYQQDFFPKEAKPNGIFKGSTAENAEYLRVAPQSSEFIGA

| Structure (SMILES) | DC50 [1] [nM] | Dmax [1] [%] | DC50 [2] [nM] | Dmax [2] [%] |
| --- | --- | --- | --- | --- |
| CCc1nc(C2CCC(=O)NC2=O)ccc1N1CCC(N2CCN(c3ccc4c(c3)N3C[C@H]5C[C@@H]5CCOc5c(cnn5C)-c5cc(cc(C)n5)C(=O)/N=C/3N4)CC2)CC1 (stereo partly shown) [Example 14, 3-(5-(4-(4-4((7^1S,7^2R,E)-1^1,2^6-dimethyl-3-oxo-5^2,5^3-dihydro-1^1H,5^1H-10-oxa-4-aza-5 (2,1)-benzo[d]imidazola-2 (2,4)-pyridina-1 (4,5)-pyrazola-7 (1,2)-cyclopropanacyclodecaphane-5^6-yl)piperazin-1-yl)piperidin-1-yl)-6-ethylpyridin-2-yl)piperidine-2,6-dione] | 9.37 | 84.4 | 5.8 | 51.4 |
| Cc1cc2cc(n1)-c1cnn(C)c1OCC[C@H]1C[C@@H]1CN1/C(=N/C2=O)Nc2ccc(N3CCN(C4CCN(c5cc(F)c(C6CCC(=O)NC6=O)nc5C)CC4)CC3)cc21 (stereo partly shown) [Example 16, 3-(5-(4-(4-((7^1S,7^2R,E)-1^1,2^6-dimethyl-3-oxo-5^2,5^3-dihydro-1^1H,5^1H-10-oxa-4-aza-5 (2,1)-benzo[d]imidazola-2 (2,4)-pyridina-1 (4,5)-pyrazola-7 (1,2)-cyclopropanacyclodecaphane-5^6-yl)piperazin-1-yl)piperidin-1-yl)-3-fluoro-6-methylpyridin-2-yl)piperidine-2,6-dione] | 18 | 76.4 | 7.82 | 73.3 |
| Cc1cc2cc(n1)-c1cnn(C)c1OCC[C@]1(C)C[C@H]1CN1/C(=N/C2=O)Nc2ccc(N3CCN(C4CCN(c5cc(F)c([C@H]6CCC(=O)NC6=O)c(F)c5)CC4)CC3)cc21 [Example 17, (R)-3-(2,6-difluoro-4-(4-(4-((7^1R,7^2S,E)-1^1,2^6,7^2-trimethyl-3-oxo-5^2,5^3-dihydro-1^1H,5^1H-10-oxa-4-aza-5 (2,1)-benzo[d]imidazola-2 (2,4)-pyridina-1 (4,5)-pyrazola-7 (1,2)-cyclopropanacyclodecaphane-5^6-yl)piperazin-1-yl)piperidin-1-yl)phenyl)piperidine-2,6-dione] | 2.32 | 84.1 | 1.6 | 68.7 |
| Cc1cc2cc(n1)-c1cnn(C)c1OCC[C@H]1C[C@@H]1CN1/C(=N/C2=O)Nc2ccc(N3CCN(C4CCN(c5cccc6c5C(C)(C)C(=O)N6C5CCC(=O)NC5=O)CC4)CC3)cc21 (stereo partly shown) [Example 18, 3-(4-(4-(4-((7^1S,7^2R,E)-1^1,2^6-dimethyl-3-oxo-5^2,5^3-dihydro-1^1H,5^1H-10-oxa-4-aza-5 (2,1)-benzo[d]imidazola-2 (2,4)-pyridina-1 (4,5)-pyrazola-7 (1,2)-cyclopropanacyclodecaphane-5^6-yl)piperazin-1-yl)piperidin-1-yl)-3,3-dimethyl-2-oxoindolin-1-yl)piperidine-2,6-dione] | 6.69 | 84.6 | 5.12 | 66.3 |
| Cc1cc2cc(n1)-c1cnn(C)c1OCC[C@]1(C)C[C@H]1CN1/C(=N/C2=O)Nc2ccc(N3CCN(C4CCN(c5ccc(C6CCC(=O)NC6=O)nc5C)CC4)CC3)cc21 (stereo partly shown) [Example 19, 3-(6-methyl-5-(4-(4-((7^1R,7^2S,E)-1^1,2^6,7^2-trimethyl-3-oxo-5^2,5^3-dihydro-1^1H,5^1H-10-oxa-4-aza-5 (2,1)-benzo[d]imidazola-2 (2,4)-pyridina-1 (4,5)-pyrazola-7 (1,2)-cyclopropanacyclodecaphane-5^6-yl)piperazin-1-yl)piperidin-1-yl)pyridin-2-yl)piperidine-2,6-dione] | 1.93 | 94.5 | 3 | 75 |
| Cc1cc2cc(n1)-c1cnn(C)c1OCC[C@H]1C[C@@H]1CN1/C(=N/C2=O)Nc2ccc(N3CCN(CCc4c(C)cc(C5CCC(=O)NC5=O)nc4C)CC3)cc21 (stereo partly shown) [Example 21, 3-(5-(2-(4-((7^1S,7^2R,E)-1^1,2^6-dimethyl-3-oxo-5^2,5^3-dihydro-1^1H,5^1H-10-oxa-4-aza-5 (2,1)-benzo[d]imidazola-2 (2,4)-pyridina-1 (4,5)-pyrazola-7 (1,2)-cyclopropanacyclodecaphane-5^6-yl)piperazin-1-yl)ethyl)-4,6-dimethylpyridin-2-yl)piperidine-2,6-dione] | 1.65 | 82.8 | 19.3 | 40.2 |

More lines, now with the values ahead:

| DC50 [1] [nM] | Dmax [1] [%] | DC50 [2] [nM] | Dmax [2] [%] | Structure (SMILES) |
| --- | --- | --- | --- | --- |
| 4.48 | 82.5 | 4.96 | 46.1 | Cc1cc2cc(n1)-c1cnn(C)c1OCC[C@H]1C[C@@H]1CN1/C(=N/C2=O)Nc2ccc(N3CCN(C4CCN(c5c(C)cc(C6CCC(=O)NC6=O)nc5C)CC4)CC3)cc21 (stereo partly shown) [Example 15, 3-(5-(4-(4-((7^1S,7^2R,E)-1^1,2^6-dimethyl-3-oxo-5^2,5^3-dihydro-1^1H,5^1H-10-oxa-4-aza-5 (2,1)-benzo[d]imidazola-2 (2,4)-pyridina-1 (4,5)-pyrazola-7 (1,2)-cyclopropanacyclodecaphane-5^6-yl)piperazin-1-yl)piperidin-1-yl)-4,6-dimethylpyridin-2-yl)piperidine-2,6-dione] |
| 12.4 | 86.8 | 0.603 | 59.1 | Cc1cc2cc(n1)-c1cnn(C)c1OCC[C@H]1C[C@@H]1CN1/C(=N/C2=O)Nc2ccc(N3CCN(C4CN(C5CCN(c6ccc(C7CCC(=O)NC7=O)nc6C)CC5)C4)CC3)cc21 (stereo partly shown) [Example 20, 3-(5-(4-(3-(4-((7^1S,7^2R,E)-1^1,2^6-dimethyl-3-oxo-5^2,5^3-dihydro-1^1H,5^1H-10-oxa-4-aza-5 (2,1)-benzo[d]imidazola-2 (2,4)-pyridina-1 (4,5)-pyrazola-7 (1,2)-cyclopropanacyclodecaphane-5^6-yl)piperazin-1-yl)azetidin-1-yl)piperidin-1-yl)-6-methylpyridin-2-yl)piperidine-2,6-dione] |
| 3.97 | 83.2 | 2.83 | 67.9 | Cc1cc2cc(n1)-c1cnn(C)c1OCC[C@H]1C[C@@H]1CN1/C(=N/C2=O)Nc2ccc(N3CCN(C4CN(C5CCN(c6c(C)cc(C7CCC(=O)NC7=O)nc6C)CC5)C4)C[C@@H]3C)cc21 (stereo partly drawn) [Example 22, 3-(5-(4-(3-((S)-4-((7^1S,7^2R,E)-1^1,2^6-dimethyl-3-oxo-5^2,5^3-dihydro-1^1H,5^1H-10-oxa-4-aza-5 (2,1)-benzo[d]imidazola-2 (2,4)-pyridina-1 (4,5)-pyrazola-7 (1,2)-cyclopropanacyclodecaphane-5^6-yl)-3-methylpiperazin-1-yl)azetidin-1-yl)piperidin-1-yl)-4,6-dimethylpyridin-2-yl)piperidine-2,6-dione] |
| 3.66 | 80 | 2.08 | 49.8 | Cc1cc2cc(n1)-c1cnn(C)c1OCC[C@H]1C[C@@H]1CN1/C(=N/C2=O)Nc2ccc(N3CCN(C4CN(C5CCN(c6c(C)cc(C7CCC(=O)NC7=O)nc6C)CC5)C4)C[C@H]3C)cc21 (stereo partly drawn) [Example 24, 3-(5-(4-(3-((R)-4-((7^1S,7^2R,E)-1^1,2^6-dimethyl-3-oxo-5^2,5^3-dihydro-1^1H,5^1H-10-oxa-4-aza-5 (2,1)-benzo[d]imidazola-2 (2,4)-pyridina-1 (4,5)-pyrazola-7 (1,2)-cyclopropanacyclodecaphane-5^6-yl)-3-methylpiperazin-1-yl)azetidin-1-yl)piperidin-1-yl)-4,6-dimethylpyridin-2-yl)piperidine-2,6-dione] |
